According to patent US20250129095A1, “ANNULATED 2-AMINO-3-CYANO THIOPHENES AND DERIVATIVES FOR THE TREATMENT OF CANCER” (Boehringer Ingelheim Int'l GmbH Corp., priority 2021, published 2025):

Legend:
Caco-2 assay = type: in vitro ADME; conditions: human, 10 μM test compound, pH 7.4; for Papp A→B at 90 min, 10 μM: Caco-2, apical to basolateral (a-b) permeability, read-out: Caco PappAB; for efflux ratio at 90 min, 10 μM: Caco-2 efflux ratio PappBA/PappAB, read-out: Caco ER
From the text: The assay provides information on the potential of a compound to pass the cell membrane, on the extent of oral absorption as well as on whether the compound is actively transported by uptake and/or efflux transporters. Permeability measurements across polarized, confluent Caco-2 cell monolayers grown on permeable filter supports (Corning, catalog #3391) are used. […] The receiver and donor compartments contain 0.25% bovine serum albumine (BSA) in assay buffer. Passive diffusion and/or active transport of compounds across the monolayer is measured in both apical to basolateral (a-b) and basolateral to apical (b-a) direction. a-b permeability (PappAB) represents drug absorption from the intestine into the blood and b-a permeability (PappBA) drug secretion from the blood back into the intestine via both passive permeability as well as active transport mechanisms mediated by efflux and uptake transporters that are expressed on the Caco-2 cells. After a pre-incubation of 25-30 min at 37° C., at predefined time points (0, 30, 60 and 90 min), samples were taken from the receiver and donor compartment, respectively.
Concentrations of test compounds in samples were measured by HPLC/MS/MS, samples from the donor compartment were diluted 1:50 (v:v) with assay buffer, samples from receiver compartment were measured without dilution.
Apparent permeabilities in a-b (PappAB) and b-a (PappBA) directions are calculated according to the formula:
[formula] • Vrec [mL]: buffer volume in receiver compartment • Cdon [pmol/mL]: concentration of test compound in donor compartment at t=0 • ΔCrec: difference between concentrations of test compound in receiver compartment at start and end of incubation time • Δt: Incubation time • Vrec·ΔCrec/Δt [[…]]: Amount of compound transferred to receiver compartment per time • A [cm^2]: filter surface
Caco-2 efflux ratios (ER) are calculated as the ratio of PappBA/PappAB.

KRAS (WT)::SOS1 = target: T1, KRAS (WT)::SOS1 (Homo sapiens, UniProt P01116, C118S); assay: KRAS::SOS1 AlphaScreen binding assay, KRAS WT
T1 construct: KRAS (WT) 1-169, N-terminal 6His-tag for purification, cleaved off; 6His-tag (N, cleaved yes); TEV cleavage site; made in house
T1 sequence (P01116 1-169 isoform P01116-2 C118S): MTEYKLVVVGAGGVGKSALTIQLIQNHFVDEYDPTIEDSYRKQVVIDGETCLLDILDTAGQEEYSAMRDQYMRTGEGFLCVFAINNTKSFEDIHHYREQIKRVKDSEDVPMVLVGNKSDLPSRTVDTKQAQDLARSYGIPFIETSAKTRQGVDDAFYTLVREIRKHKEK
From the text: (§1) This assay can be used to examine the potency with which compounds according to the invention binding to (mutated) KRAS inhibit the protein-protein interaction between SOS1 and (mutated) KRAS e.g., KRAS WT, KRAS G12C, KRAS G12D, KRAS G12V, KRAS G13D. […] Low IC50 values in this assay setting are indicative of strong inhibition of protein-protein interaction between SOS1 and KRAS:
(§2) These assays measure the inhibitory effect of compounds on KRAS mutant protein-protein interactions using the Alpha Screen technology by Perkin Elmer
(§3) The following (mutant) enzyme forms of KRAS and interacting proteins are used in these assays at the given concentrations: • KRAS (G12D) 1-169, N-terminal 6His-tag, C-terminal avi-tag (Xtal BioStructures, Inc.); final assay concentration 10 nM and SOS1 564-1049, N-terminal 229 GST-tag, TEV cleavage site (Viva Biotech Ltd); final assay concentration 5 nM; • KRAS (G12C) 1-169, N-terminal 6His-tag for purification, cleaved off, C-terminal avi-tag, biotinylated, mutations: C51S, C80L, C118S (in house); final assay concentration 7.5 nM and SOS1 564-1049, N-terminal 229 GST-tag, TEV cleavage site (Viva Biotech Ltd); final assay concentration 5 nM; • KRAS (G12V) 1-169, N-terminal 6His-tag for purification, cleaved off, C-terminal avi-tag, biotinylated, TEV cleavage site, mutation: C118S, GDP loaded (in house); final assay concentration 10 nM and SOS1 564-1049, N-terminal 229 GST-tag, TEV cleavage site (Viva Biotech Ltd); final assay concentration 10 nM; • KRAS (G13D) 1-169, N-terminal 6His-tag for purification, cleaved off, C-terminal avi-tag, biotinylated, TEV cleavage site, mutation: C118S, GDP loaded (in house); final assay concentration 10 nM and SOS1 564-1049, N-terminal 229 GST-tag, TEV cleavage site (Viva Biotech Ltd); final assay concentration 10 nM; • KRAS (WT) 1-169, N-terminal 6His-tag for purification, cleaved off, C-terminal avi-tag, biotinylated, TEV cleavage site, mutation: C118S, GDP loaded (in house); final assay concentration 10 nM and SOS1 564-1049, N-terminal 229 GST-tag, TEV cleavage site (Viva Biotech Ltd); final assay concentration 10 nM.
(§4) Test compounds dissolved in DMSO are dispensed onto assay plates (Proxiplate 384 PLUS, white, PerkinElmer; 6008289) using an Access Labcyte Workstation with the Labcyte Echo 55×. For the chosen highest assay concentration of 100 μM, 150 nL of compound solution are transferred from a 10 mM DMSO compound stock solution. A series of eleven fivefold dilutions per compound are transferred to the assay plate, compound dilutions are tested in duplicates. DMSO are added as backfill to a total volume of 150 nL.
(§5) The assays run on a fully automated robotic system in a darkened room below 100 Lux. To 150 nl of compound dilution 10 μl of a mix including KRAS mutant protein, SOS1 (final assay concentrations see above) and GDP nucleotide (Sigma G7127; final assay concentration 10 μM) in assay buffer (1×PBS, 0.1% BSA, 0.05% Tween 20) are added into columns 1-24.
(§6) After 30 minutes incubation time 5 μl of Alpha Screen bead mix in assay buffer are added into columns 1-23. Bead mix consists of AlphaLISA Glutathione Acceptor Beads (PerkinElmer, Cat No AL109) and AlphaScreen Streptavidin Donor Beads (PerkinElmer Cat No 6760002) in assay buffer at a final assay concentration of 10 μg/ml each.
(§7) Plates are kept at room temperature in a darkened incubator. After an additional 60 minutes incubation time the signal is measured in a PerkinElmer Envision HTS Multilabel Reader using the AlphaScreen specs from PerkinElmer.
(§8) Each plate contains up to 16 wells of a negative control depending on the dilution procedure (platewise or serial) (DMSO instead of test compound; with KRAS mutant::SOS1 GDP mix and bead mix; column 23) and 16wells of a positive control (DMSO instead of test compound; with KRAS mutant::SOS1 GDP mix w/o bead mix; column 24).
(§9) As internal control known inhibitors of KRAS mutant::SOS1 interaction can be measured on each compound plate. […]

KRAS (G12V)::SOS1 = target: T2, KRAS (G12V)::SOS1 (Homo sapiens, UniProt P01116, C118S/G12V); assay: KRAS::SOS1 AlphaScreen binding assay, KRAS G12V
T2 construct: KRAS (G12V) 1-169, N-terminal 6His-tag for purification, cleaved off; 6His-tag (N, cleaved yes); TEV cleavage site; made in house
T2 sequence (P01116 1-169 isoform P01116-2 G12V/C118S): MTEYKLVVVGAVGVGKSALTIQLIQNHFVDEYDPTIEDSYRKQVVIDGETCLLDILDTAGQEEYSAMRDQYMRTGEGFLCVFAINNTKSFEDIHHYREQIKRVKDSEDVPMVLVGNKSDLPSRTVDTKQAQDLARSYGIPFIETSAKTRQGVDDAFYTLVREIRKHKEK
From the text: as §1, §2, §3, §4, §5, §6, §7, §8, §9

C[C@H](Oc1cc(N(C)C)nc(-c2noc3c2CCC[C@@]32CCCc3sc(N)c(C#N)c32)n1)[C@@H]1CCCN1C [II-10]
Papp A→B at 90 min, 10 μM (Caco-2 assay): 7.6 ×10⁻⁶ cm/s | efflux ratio at 90 min, 10 μM (Caco-2 assay): 3

C[C@H](Oc1cc(Nc2ncco2)nc(-c2noc3c2CCC[C@@]32CCCc3sc(N)c(C#N)c32)n1)[C@@H]1CCCN1C [II-13]
IC50 (KRAS (WT)::SOS1): 7 nM | IC50 (KRAS (G12V)::SOS1): 2 nM | Papp A→B at 90 min, 10 μM (Caco-2 assay): 5.2 ×10⁻⁶ cm/s | efflux ratio at 90 min, 10 μM (Caco-2 assay): 3.1

C[C@H](Oc1cc(Nc2cnccn2)nc(-c2noc3c2CCC[C@@]32CCCc3sc(N)c(C#N)c32)n1)[C@@H]1CCCN1C [II-14]
IC50 (KRAS (WT)::SOS1): 10 nM | IC50 (KRAS (G12V)::SOS1): 3 nM

C[C@H](Oc1cc(Nc2ccncn2)nc(-c2noc3c2CCC[C@@]32CCCc3sc(N)c(C#N)c32)n1)[C@@H]1CCCN1C [II-15]
Papp A→B at 90 min, 10 μM (Caco-2 assay): 2 ×10⁻⁶ cm/s | efflux ratio at 90 min, 10 μM (Caco-2 assay): 14.5

C[C@H](Oc1cc(Nc2ccccn2)nc(-c2noc3c2CCC[C@@]32CCCc3sc(N)c(C#N)c32)n1)[C@@H]1CCCN1C [II-16]
efflux ratio at 90 min, 10 μM (Caco-2 assay): 3.1

C[C@H](Oc1cc(Nc2ncccn2)nc(-c2noc3c2CCC[C@@]32CCCc3sc(N)c(C#N)c32)n1)[C@@H]1CCCN1C [II-17]
IC50 (KRAS (WT)::SOS1): 8 nM | IC50 (KRAS (G12V)::SOS1): 2 nM | Papp A→B at 90 min, 10 μM (Caco-2 assay): 3.9 ×10⁻⁶ cm/s | efflux ratio at 90 min, 10 μM (Caco-2 assay): 5

C[C@H](Oc1cc(Nc2cccnn2)nc(-c2noc3c2CCC[C@@]32CCCc3sc(N)c(C#N)c32)n1)[C@@H]1CCCN1C [II-18]
Papp A→B at 90 min, 10 μM (Caco-2 assay): 1.4 ×10⁻⁶ cm/s | efflux ratio at 90 min, 10 μM (Caco-2 assay): 17.9

C[C@H](Oc1cc(N(C)CCN(C)C)nc(-c2noc3c2CCC[C@@]32CCCc3sc(N)c(C#N)c32)n1)[C@@H]1CCCN1C [II-20]
Papp A→B at 90 min, 10 μM (Caco-2 assay): 0.8 ×10⁻⁶ cm/s | efflux ratio at 90 min, 10 μM (Caco-2 assay): 38

C[C@H](Oc1cc(OCC2(N(C)C)CC2)nc(-c2noc3c2CCC[C@@]32CCCc3sc(N)c(C#N)c32)n1)[C@@H]1CCCN1C [II-21]
efflux ratio at 90 min, 10 μM (Caco-2 assay): 1.4

C[C@H](Oc1cc(OCC2(N(C)C)COC2)nc(-c2noc3c2CCC[C@@]32CCCc3sc(N)c(C#N)c32)n1)[C@@H]1CCCN1C [II-22]
IC50 (KRAS (WT)::SOS1): 2 nM | IC50 (KRAS (G12V)::SOS1): 2 nM | Papp A→B at 90 min, 10 μM (Caco-2 assay): 2.6 ×10⁻⁶ cm/s | efflux ratio at 90 min, 10 μM (Caco-2 assay): 15.5

COc1c(OCC2(N(C)C)COC2)nc(-c2noc3c2CCC[C@@]32CCCc3sc(N)c(C#N)c32)nc1O[C@@H](C)[C@@H]1CCCN1C [II-25]
IC50 (KRAS (WT)::SOS1): 4 nM | IC50 (KRAS (G12V)::SOS1): 2 nM | Papp A→B at 90 min, 10 μM (Caco-2 assay): 2.5 ×10⁻⁶ cm/s | efflux ratio at 90 min, 10 μM (Caco-2 assay): 13.6

C[C@H]1CN(C)CCCN1c1cc(O[C@@H]2CNC2(C)C)nc(-c2noc3c2CCC[C@@]32CCCc3sc(N)c(C#N)c32)n1 [II-28]
IC50 (KRAS (WT)::SOS1): 10 nM

C[C@H](Oc1cc(O[C@@H]2CNC[C@@H]2F)nc(-c2noc3c2CCC[C@@]32CCCc3sc(N)c(C#N)c32)n1)[C@@H]1CCCN1C [II-29]
IC50 (KRAS (WT)::SOS1): 4 nM | IC50 (KRAS (G12V)::SOS1): 2 nM | Papp A→B at 90 min, 10 μM (Caco-2 assay): 0.9 ×10⁻⁶ cm/s | efflux ratio at 90 min, 10 μM (Caco-2 assay): 25.5

CO[C@@H]1C[C@@H]([C@H](C)Oc2cc(O[C@@H]3CNC3(C)C)nc(-c3noc4c3CCC[C@@]43CCCc4sc(N)c(C#N)c43)n2)N(C)C1 [II-30]
IC50 (KRAS (WT)::SOS1): 2 nM | IC50 (KRAS (G12V)::SOS1): 2 nM | Papp A→B at 90 min, 10 μM (Caco-2 assay): 0.2 ×10⁻⁶ cm/s | efflux ratio at 90 min, 10 μM (Caco-2 assay): 125
